# Results: EP3800188A1, “SUBSTITUTED PYRAZOLOPYRIMIDINES AS IRAK4 INHIBITORS” (Bayer AG, priority 2019, dated 2021)
# Biological target: T1, human IRAK4 (Homo sapiens, UniProt Q9NWZ3)
# T1 construct: GST (N); made in house; host or cells: baculovirus-infected Hi5 (BTI-TN-5B1-4) insect cells
# T1 sequence (Q9NWZ3 1-460): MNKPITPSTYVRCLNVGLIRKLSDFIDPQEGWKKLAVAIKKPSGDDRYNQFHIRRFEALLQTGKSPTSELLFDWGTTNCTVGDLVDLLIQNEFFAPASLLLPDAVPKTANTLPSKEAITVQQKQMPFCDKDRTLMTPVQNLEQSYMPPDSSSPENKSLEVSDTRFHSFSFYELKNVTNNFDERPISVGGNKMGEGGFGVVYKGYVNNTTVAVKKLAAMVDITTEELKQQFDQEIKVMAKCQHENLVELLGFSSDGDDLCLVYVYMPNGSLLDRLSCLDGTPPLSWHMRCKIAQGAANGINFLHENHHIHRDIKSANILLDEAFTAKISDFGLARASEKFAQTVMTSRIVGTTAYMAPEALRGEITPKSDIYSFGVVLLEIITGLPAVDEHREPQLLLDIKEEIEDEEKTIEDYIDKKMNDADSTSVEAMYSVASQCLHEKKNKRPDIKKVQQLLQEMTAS
# Assay: Human IRAK4 kinase activity inhibition assay (IRAK4 TR-FRET assay)
# Format: biochemical
# Conditions: 1 mM ATP, GST-human IRAK4, average or median values
# Experimental: The IRAK4-inhibitory activity of the inventive substances was measured in the IRAK4 TR-FRET assay (TR-FRET = Time Resolved Fluorescence Resonance Energy Transfer) described hereinafter.
# Recombinant fusion protein from N-terminal GST (glutathione S-transferase) and human IRAK4, expressed in baculovirus-infected insect cells (Hi5, BTI-TN-5B1-4, cell line purchased from Invitrogen, catalogue No. B855-02) and purified via affinity chromatography, was used as enzyme. The substrate used for the kinase reaction was the biotinylated peptide biotin-Ahx-[…] (C-terminus in amide form) which can be purchased, for example, from Biosyntan GmbH (Berlin-Buch). For the assay, 11 different concentrations in the range from 20 µM to 0.073 nM were prepared from a 2 mM DMSO solution of the test substance. 50 nl of the respective 100fold concentrated test compound solutions in DMSO were pipetted into a black low-volume 384-well microtitre plate or a black 1536-well microtiter plate (both Greiner Bio-One, Frickenhausen, Germany), 2 µl of a solution of IRAK4 in assay buffer [50 mM HEPES pH 7.5, 5mM MgCl2, 1.0 mM dithiothreitol, 30 µM activated sodium orthovanadate, 0.1% (w/v) of bovine gamma-globulin (BGG) 0.04% (v/v) nonidet-P40 (Sigma)] were added and the mixture was incubated for 15 min to allow prebinding of the substances to the enzyme prior to the kinase reaction. […] The concentration of the IRAK4 was adjusted to the respective activity of the enzyme and set such that the assay was carried out in the linear range. Typical concentrations were in the order of about 0.2 nM. The reaction was stopped by addition of 5 µl of a solution of TR-FRET detection reagents [0.1 µM streptavidin-XL665 (Cisbio Bioassays; France, catalogue No. 610SAXLG)] and 1.5 nM anti-phosphoserine antibody [Merck Millipore, "STK Antibody", catalogue No. 35-002] and 0.6 nM LANCE EU-W1024-labelled anti-mouse-IgG antibody (Perkin-Elmer, product No. AD0077; alternatively, it is possible to use a terbium cryptate-labelled anti-mouse-IgG antibody from Cisbio Bioassays) in aqueous EDTA solution (100 mM EDTA, 0.4 % [w/v] bovine serum albumin [BSA] in 25 mM HEPES pH 7.5). The resulting mixture was incubated at 22°C for 1 h to allow formation of a complex of the biotinylated phosphorylated substrate and the detection reagents. The amount of the phosphorylated substrate was then evaluated by measuring the resonance energy transfer from europium chelate-labelled anti-mouse-IgG antibody to streptavidin-XL665. To this end, the fluorescence emissions at 620 nm and 665 nm were measured after excitation at 350 nm in a TR-FRET measuring instrument, for example a Rubystar (BMG Labtechnologies, Offenburg, Germany) or a Viewlux (Perkin-Elmer). The ratio of the emissions at 665 nm and 622 nm was taken as a measure of the amount of phosphorylated substrate. The data were normalized (enzyme reaction without test substance = 0% inhibition; all other assay components but no enzyme = 100% inhibition).
row,SMILES,IC50
1,"CS(=O)(=O)[C@H]1C[C@H](Nc2nc(N3C[C@@H](O)[C@H](F)C3)c3cnn(-c4cccc(C(F)F)c4)c3n2)C1 (relative stereo) [II-16-1, rel-(3R,4R)-1-(1-[3-(difluoromethyl)phenyl]-6-{[trans-3-(methylsulfonyl)cyclobutyl]-amino)-1H-pyrazolo[3,4-d]pyrimidin-4-yl)-4-fluoropyrrolidin-3-ol]",1.36 nM
2,"C[C@H]1CN(c2nc(N[C@H]3C[C@H](S(C)(=O)=O)C3)nc3c2cnn3-c2cccc(C(F)F)c2)C[C@@H]1O (single isomer, unassigned) [II-17-3, (3R*,4S*)-1-(1-[3-(difluoromethyl)phenyl]-6-{[trans-3-(methylsulfonyl)cyclobutyl]amino}-1H-pyrazolo[3,4-d]pyrimidin-4-yl)-4-methylpyrrolidin-3-ol]",4.17 nM
3,"CC(C)(O)C1CCN(c2nc(NC3CCS(=O)(=O)C3)nc3c2cnn3-c2cccc(C(F)(F)F)c2)CC1 (single isomer, unassigned; (-)) [Example I-4-3, (-)-2-(1-{6-[(1,1-dioxidotetrahydrothiophen-3-yl)amino]-1-[3-(trifluoromethyl)phenyl]-1H-pyrazolo[3,4-d]pyrimidin-4-yl}piperidin-4-yl)propan-2-ol]",68.5 nM
4,"O=C1C[C@@H](Nc2nc(N3CC(N4CCOCC4)C3)c3cnn(-c4cccc(C(F)(F)F)c4)c3n2)CN1 [Example I-1-2, (4R)-4-({4-[3-(morpholin-4-yl)azetidin-1-yl]-1-[3-(trifluoromethyl)phenyl]-1H-pyrazolo-[3,4-d]pyrimidin-6-yl}amino)pyrrolidin-2-one]",84.5 nM
5,"CC(C)(O)C1CCN(c2nc(N[C@H]3CNC(=O)C3)nc3c2cnn3-c2cccc(C(F)(F)F)c2)CC1 [Example I-2-2, (4R)-4-({4-[4-(2-hydroxypropan-2-yl)piperidin-1-yl]-1-[3-(trifluoromethyl)phenyl]-1H-pyrazolo[3,4-d]pyrimidin-6-yl}amino)pyrrolidin-2-one]",31.4 nM
6,"CC(C)(O)C1CCN(c2nc(NC3CNC(=O)C3)nc3c2cnn3-c2cccc(C(F)(F)F)c2)CC1 (stereo not shown) [Example I-2-3, 4-({4-[4-(2-hydroxypropan-2-yl)piperidin-1-yl]-1-[3-(trifluoromethyl)phenyl]-1H-pyrazolo[3,4-d]pyrimidin-6-yl}amino)pyrrolidin-2-one]",9.69 nM
7,"CCC1(O)CN(c2nc(N[C@H]3CNC(=O)C3)nc3c2cnn3-c2cccc(C(F)(F)F)c2)C1 [Example I-3-2, (4R)-4-({4-(3-ethyl-3-hydroxyazetidin-1-yl)-1-[3-(trifluoromethyl)phenyl]-1H-pyrazolo[3,4-d]pyrimidin-6-yl}amino)pyrrolidin-2-one]",167 nM
8,"CC(C)(O)C1CCN(c2nc(NC3CCS(=O)(=O)C3)nc3c2cnn3-c2cccc(C(F)(F)F)c2)CC1 (stereo not shown) [Example I-4-1, 2-(1-{6-[(1,1-dioxidotetrahydrothiophen-3-yl)amino]-1-[3-(trifluoromethyl)phenyl]-1H-pyrazolo[3,4-d]pyrimidin-4-yl}piperidin-4-yl)propan-2-ol]",12.2 nM
9,"CC(C)(O)C1CCN(c2nc(N[C@@H]3CCC(=O)NC3)nc3c2cnn3-c2cccc(C(F)(F)F)c2)CC1 [Example I-7-1, (5R)-5-({4-[4-(2-hydroxypropan-2-yl)piperidin-1-yl]-1-[3-(trifluoromethyl)phenyl]-1H-pyrazolo[3,4-d]pyrimidin-6-yl}amino)piperidin-2-one]",11.4 nM
10,"CC(C)(O)C1CCN(c2nc(N[C@H]3CCC(=O)NC3)nc3c2cnn3-c2cccc(C(F)(F)F)c2)CC1 [Example I-7-2, (5S)-5-({4-[4-(2-hydroxypropan-2-yl)piperidin-1-yl]-1-[3-(trifluoromethyl)phenyl]-1H-pyrazolo[3,4-d]pyrimidin-6-yl}amino)piperidin-2-one]",33.8 nM

# The remaining lines, values ahead:
row,IC50,SMILES
1,178 nM,"NC1CCN(c2nc(N[C@H]3C[C@H](O)C3)nc3c2cnn3-c2cccc(C(F)(F)F)c2)CC1(F)F (mixture of isomers) [Example I-104, trans-3-({4-[(4RS)-4-amino-3,3-difluoropiperidin-1-yl]-1-[3-(trifluoromethyl)phenyl]-1H-pyrazolo[3,4-d]pyrimidin-6-yl}amino)cyclobutanol]"
2,280 nM,"NC1CCN(c2nc(NC3CCS(=O)(=O)CC3)nc3c2cnn3-c2cccc(C(F)(F)F)c2)CC1(F)F (racemic) [Example I-105, 4-[(4RS)-4-amino-3,3-difluoropiperidin-1-yl]-N-(1,1-dioxidotetrahydro-2H-thiopyran-4-yl)-1-[3-(trifluoromethyl)phenyl]-1H-pyrazolo[3,4-d]pyrimidin-6-amine]"
3,15.6 nM,"CC(C)(O)C1CCN(c2nc(N[C@@H]3CNC[C@H]3F)nc3c2cnn3-c2cccc(C(F)(F)F)c2)CC1 (relative stereo) [Example I-65, 2-[1-(6-{[rel-(3R,4R)-4-fluoropyrrolidin-3-yl]amino}-1-[3-(trifluoromethyl)phenyl]-1H-pyrazolo[3,4-d]pyrimidin-4-yl)piperidin-4-yl]propan-2-ol]"
4,25 nM,"O[C@H]1COC[C@H]1Nc1nc(N2CC(N3CCOCC3)C2)c2cnn(-c3cccc(C(F)(F)F)c3)c2n1 (relative stereo) [Example I-70, rel-(3R,4R)-4-({4-[3-(morpholin-4-yl)azetidin-1-yl]-1-[3-(trifluoromethyl)phenyl]-1H-pyrazolo[3,4-d]pyrimidin-6-yl}amino)tetrahydrofuran-3-ol]"
5,28 nM,"O[C@@H]1CC[C@@H]1Nc1nc(N2CC(N3CCOCC3)C2)c2cnn(-c3cccc(C(F)(F)F)c3)c2n1 (relative stereo) [Example I-73, rel-(1R,2S)-2-({4-[3-(morpholin-4-yl)azetidin-1-yl]-1-[3-(trifluoromethyl)phenyl]-1H-pyrazolo[3,4-d]pyrimidin-6-yl}amino)cyclobutanol]"
6,14 nM,"O[C@@H]1CC[C@H]1Nc1nc(N2CC(N3CCOCC3)C2)c2cnn(-c3cccc(C(F)(F)F)c3)c2n1 (relative stereo) [Example I-75, rel-(1R,2R)-2-({4-[3-(morpholin-4-yl)azetidin-1-yl]-1-[3-(trifluoromethyl)phenyl]-1H-pyrazolo[3,4-d]pyrimidin-6-yl}amino)cyclobutanol]"
7,76.8 nM,"CC(C)(O)C1CCN(c2nc(NC3CC(=O)NC3(C)C)nc3c2cnn3-c2cccc(C(F)(F)F)c2)CC1 (stereo not shown) [Example I-6, 4-({4-[4-(2-hydroxypropan-2-yl)piperidin-1-yl]-1-[3-(trifluoromethyl)phenyl]-1H-pyrazolo-[3,4-d]pyrimidin-6-yl}amino)-5,5-dimethylpyrrolidin-2-one]"
8,41.4 nM,"CN1CC(Nc2nc(N3CCC(C(C)(C)O)CC3)c3cnn(-c4cccc(C(F)(F)F)c4)c3n2)CC1=O (stereo not shown) [Example I-8, 4-({4-[4-(2-hydroxypropan-2-yl)piperidin-1-yl]-1-[3-(trifluoromethyl)phenyl]-1H-pyrazolo[3,4-d]pyrimidin-6-yl}amino)-1-methylpyrrolidin-2-one]"
9,59.5 nM,"CN1CC[C@@H](Nc2nc(N3CCC(C(C)(C)O)CC3)c3cnn(-c4cccc(C(F)(F)F)c4)c3n2)C1=O [Example I-9, (3R)-3-({4-[4-(2-hydroxypropan-2-yl)piperidin-1-yl]-1-[3-(trifluoromethyl)phenyl]-1H-pyrazolo[3,4-d]pyrimidin-6-yl}amino)-1-methylpyrrolidin-2-one]"
